Several values for one entry are separate records, joined by “and”; a condition that tells them apart may be missing. Equal values may be shown once. Read-outs that look alike come from different tables or passages of the source.
Columns and labels:
[1] = target: T1, human recombinant histamine H2 receptor (Homo sapiens, UniProt P25021); assay: Histamine H2 radioligand binding ([125I]Aminopotentidine); conditions: read-out: Histamine Binding (1 μM) H2, percent inhibition of specific binding, 1 μM
T1 construct: expressed in transfected cells; host or cells: Chinese hamster ovary (CHO) K1 cells
T1 sequence (P25021 whole entry): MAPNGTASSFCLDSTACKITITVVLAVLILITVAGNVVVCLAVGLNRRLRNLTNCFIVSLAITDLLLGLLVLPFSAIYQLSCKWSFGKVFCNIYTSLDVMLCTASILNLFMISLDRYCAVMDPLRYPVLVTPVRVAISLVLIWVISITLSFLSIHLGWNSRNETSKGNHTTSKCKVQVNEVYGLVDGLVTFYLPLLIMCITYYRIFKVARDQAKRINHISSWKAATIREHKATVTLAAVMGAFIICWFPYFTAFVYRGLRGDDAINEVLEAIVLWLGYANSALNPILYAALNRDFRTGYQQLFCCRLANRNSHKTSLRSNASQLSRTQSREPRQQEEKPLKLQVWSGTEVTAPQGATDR
Procedure: To evaluate in radioligand binding assays the activity of compounds of the invention, human recombinant histamine H2 receptor expressed in Chinese hamster ovary (CHO) K1 cells (Ruat, M., Proc. Natl. Acad. Sci. USA. 87(5):1658, 1990) in a 50 mM Phosphate buffer, pH 7.4 was used. Compounds of the invention were incubated with 0.1 nM [^125I]Aminopotentidine for 120 min. at 25° C. Non-specific binding was estimated in the presence of 3 μM Tiotidine. Receptor proteins were filtered and washed, the filters were then counted to determine [^125I]Aminopotentidine specifically bound.

[2] = target: T2, human recombinant serotonin (5-Hydroxytryptamine) 5-HT6 receptor (Homo sapiens, UniProt P50406); assay: Serotonin 5-HT6 radioligand binding ([3H]LSD); conditions: read-out: Inhibition of ligand binding, Serotonin 5-HT6 (percent inhibition of specific binding); for inhibition at 1 µM: compound at 1 μM
T2 construct: expressed in transfected cells; host or cells: human HeLa cells
T2 sequence (P50406 whole entry): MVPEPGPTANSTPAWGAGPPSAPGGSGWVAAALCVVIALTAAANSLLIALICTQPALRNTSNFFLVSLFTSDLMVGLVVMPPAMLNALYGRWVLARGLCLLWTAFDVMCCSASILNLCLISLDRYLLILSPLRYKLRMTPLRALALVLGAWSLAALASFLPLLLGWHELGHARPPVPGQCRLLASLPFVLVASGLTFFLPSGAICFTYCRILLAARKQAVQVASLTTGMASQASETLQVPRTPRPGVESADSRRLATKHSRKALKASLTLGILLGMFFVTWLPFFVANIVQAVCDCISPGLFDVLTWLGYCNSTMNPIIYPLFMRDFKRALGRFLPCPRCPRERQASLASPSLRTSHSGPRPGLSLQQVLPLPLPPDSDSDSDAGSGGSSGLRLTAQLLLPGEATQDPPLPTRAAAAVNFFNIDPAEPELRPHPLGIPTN
Procedure: Compounds of the invention were incubated with 1.5 nM [3H]Lysergic acid diethylamide (LSD) for 120 min. at 37° C. […] Receptor proteins were filtered and washed, the filters were then counted to determine [3H]LSD specifically bound. Compounds were screened at 1 μM or lower, using 1% DMSO as vehicle. Biochemical assay results are presented as the percent inhibition of specific binding in Table 10.

[3] = target: T3, human recombinant serotonin (5-Hydroxytryptamine) 5-HT2A receptor (Homo sapiens, UniProt P28223); assay: Serotonin 5-HT2A radioligand binding ([3H]Ketanserin); conditions: for inhibition at 1 µM: read-out: Inhibition of ligand binding, Serotonin 5-HT2A (percent inhibition of specific binding), compound at 1 μM
T3 construct: expressed in transfected cells; host or cells: Chinese hamster ovary (CHO-K1) cells
T3 sequence (P28223 whole entry): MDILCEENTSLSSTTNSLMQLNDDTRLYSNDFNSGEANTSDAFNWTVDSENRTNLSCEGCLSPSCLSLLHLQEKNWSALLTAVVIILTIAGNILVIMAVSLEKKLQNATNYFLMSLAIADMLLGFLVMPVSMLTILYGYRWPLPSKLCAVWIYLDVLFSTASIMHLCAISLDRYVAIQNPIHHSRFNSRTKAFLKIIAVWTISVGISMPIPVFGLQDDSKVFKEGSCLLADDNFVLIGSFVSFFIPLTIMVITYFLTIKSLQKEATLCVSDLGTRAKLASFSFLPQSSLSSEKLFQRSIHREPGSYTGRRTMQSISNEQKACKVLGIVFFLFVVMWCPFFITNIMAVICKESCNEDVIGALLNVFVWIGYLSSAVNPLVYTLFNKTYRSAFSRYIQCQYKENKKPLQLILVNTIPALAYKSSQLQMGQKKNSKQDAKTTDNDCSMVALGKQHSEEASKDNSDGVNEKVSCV
Procedure: Compounds of the invention were incubated with 0.5 nM [^3H]Ketanserin for 60 min. at 25° C. Non-specific binding was estimated in the presence of 1 μM Mianserin. Receptor proteins were filtered and washed, the filters were then counted to determine [^3H]Ketanserin specifically bound.

[4] = target: T4, human recombinant serotonin (5-Hydroxytryptamine) 5-HT2C receptor (Homo sapiens, UniProt P28335); assay: Serotonin 5-HT2C radioligand binding ([3H]Mesulergine); conditions: read-out: Inhibition of ligand binding, Serotonin 5-HT2C (percent inhibition of specific binding); for inhibition at 1 µM: compound at 1 μM
T4 construct: expressed in transfected cells; host or cells: Chinese hamster ovary (CHO-K1) cells
T4 sequence (P28335 33-458): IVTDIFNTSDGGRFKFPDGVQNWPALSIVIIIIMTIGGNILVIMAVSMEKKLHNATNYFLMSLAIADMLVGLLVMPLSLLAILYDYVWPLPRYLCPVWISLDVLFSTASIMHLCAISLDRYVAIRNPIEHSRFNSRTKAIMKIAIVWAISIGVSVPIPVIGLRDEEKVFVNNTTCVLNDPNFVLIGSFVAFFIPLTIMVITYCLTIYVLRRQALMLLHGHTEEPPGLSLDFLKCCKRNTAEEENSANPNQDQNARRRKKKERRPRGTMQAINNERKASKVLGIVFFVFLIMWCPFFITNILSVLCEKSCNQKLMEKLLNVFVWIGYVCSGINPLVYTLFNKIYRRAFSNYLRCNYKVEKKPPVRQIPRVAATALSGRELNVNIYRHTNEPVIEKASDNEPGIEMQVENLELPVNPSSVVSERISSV
Method in brief: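 Compounds tested at 1 μM or lower (1% DMSO vehicle) for displacement of 1 nM [3H]Mesulergine over 60 min at 25° C. Specific binding determined by filtration counting, with 1 μM Mianserin defining non-specific binding; values are percent inhibition.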

[5] = target: human recombinant serotonin (5-Hydroxytryptamine) 5-HT7 receptor (Homo sapiens, UniProt P34969); assay: Serotonin 5-HT7 radioligand binding ([3H]LSD); conditions: compound at 1 μM; read-out: Inhibition of ligand binding, Serotonin 5-HT7 (percent inhibition of specific binding)
Sequence of human recombinant serotonin (5-Hydroxytryptamine) 5-HT7 receptor (P34969 whole entry): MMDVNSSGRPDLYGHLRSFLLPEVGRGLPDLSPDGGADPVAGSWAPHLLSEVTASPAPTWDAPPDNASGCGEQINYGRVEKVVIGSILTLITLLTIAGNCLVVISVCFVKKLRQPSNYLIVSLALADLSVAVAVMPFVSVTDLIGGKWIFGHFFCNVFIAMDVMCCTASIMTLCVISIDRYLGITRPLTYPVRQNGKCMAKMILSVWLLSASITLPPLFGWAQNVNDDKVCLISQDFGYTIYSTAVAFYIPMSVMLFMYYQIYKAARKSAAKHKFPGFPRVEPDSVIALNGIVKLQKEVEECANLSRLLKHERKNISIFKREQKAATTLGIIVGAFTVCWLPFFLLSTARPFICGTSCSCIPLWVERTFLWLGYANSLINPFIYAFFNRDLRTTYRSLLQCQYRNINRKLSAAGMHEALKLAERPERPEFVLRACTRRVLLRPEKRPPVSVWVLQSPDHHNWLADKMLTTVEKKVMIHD
Source text: Receptor proteins were filtered and washed, the filters were then counted to determine [^3H]LSD specifically bound.

[6] = target: human dopamine D2L receptor (Homo sapiens, UniProt P14416); assay: Dopamine D2L radioligand binding ([3H]Spiperone); conditions: compound at 1 μM
Sequence of human dopamine D2L receptor (P14416 whole entry): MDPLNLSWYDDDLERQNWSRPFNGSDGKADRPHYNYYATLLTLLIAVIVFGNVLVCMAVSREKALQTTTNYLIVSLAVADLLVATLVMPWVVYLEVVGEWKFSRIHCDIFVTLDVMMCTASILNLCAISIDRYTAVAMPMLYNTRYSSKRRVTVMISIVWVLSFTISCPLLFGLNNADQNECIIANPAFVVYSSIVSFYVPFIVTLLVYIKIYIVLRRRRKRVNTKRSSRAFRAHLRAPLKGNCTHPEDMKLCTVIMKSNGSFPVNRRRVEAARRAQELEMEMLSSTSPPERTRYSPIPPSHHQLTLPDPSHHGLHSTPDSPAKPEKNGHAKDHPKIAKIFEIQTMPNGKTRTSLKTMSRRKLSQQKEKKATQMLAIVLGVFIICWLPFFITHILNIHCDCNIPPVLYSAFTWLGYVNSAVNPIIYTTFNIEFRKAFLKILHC
Source text: Non-specific binding was estimated in the presence of […] Haloperidol. Receptor proteins were filtered and washed, the filters were then counted to determine [^3H]Spiperone specifically bound. […] Biochemical assay results are presented as the percent inhibition of specific binding in Table 9.

histamine receptor H1 = histamine receptor H1 (Homo sapiens, UniProt P35367); assay: Histamine H1 radioligand binding ([3H]Pyrilamine); conditions: for inhibition at 1 µM: read-out: Histamine Binding (1 μM) H1, percent inhibition of specific binding, 1 μM
Sequence of histamine receptor H1 (P35367 whole entry): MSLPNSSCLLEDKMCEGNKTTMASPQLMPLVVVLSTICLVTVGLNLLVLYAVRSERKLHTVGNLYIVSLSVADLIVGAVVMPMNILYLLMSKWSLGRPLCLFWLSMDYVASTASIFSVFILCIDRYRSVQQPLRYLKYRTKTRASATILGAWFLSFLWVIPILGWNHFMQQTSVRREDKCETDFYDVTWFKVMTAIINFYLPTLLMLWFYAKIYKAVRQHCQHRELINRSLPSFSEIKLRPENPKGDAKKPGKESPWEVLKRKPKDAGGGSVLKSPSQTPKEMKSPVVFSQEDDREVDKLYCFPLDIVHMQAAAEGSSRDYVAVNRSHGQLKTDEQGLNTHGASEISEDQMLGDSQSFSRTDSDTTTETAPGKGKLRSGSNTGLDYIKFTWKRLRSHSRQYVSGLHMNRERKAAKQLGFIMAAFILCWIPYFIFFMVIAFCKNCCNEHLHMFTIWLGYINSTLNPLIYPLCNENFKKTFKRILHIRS
Method in brief: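 Values are percent inhibition of specific [3H]pyrilamine (1.2 nM) binding with compounds at ≤1 μM (1% DMSO vehicle); 180 min incubation at 25 °C, pH 7.4 Tris buffer, on CHO-expressed human H1 receptor; 1 μM pyrilamine defined nonspecific binding, bound ligand counted after filtration.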

[7] = percent inhibition of specific binding, read-out: Inhibition of ligand binding, Dopamine D2L
[8] = […] [3H]Spiperone, read-out: Inhibition of ligand binding, Dopamine D2L (percent inhibition of specific binding)

For `C/C(=C\n1c2c(c3cc(C)ccc31)CN(C)CC2)c1ccc(Cl)c(Cl)c1` [Compound 231, (E)-5-(2-(3,4-dichlorophenyl)prop-1-enyl)-2,8-dimethyl-2,3,4,5-tetrahydro-1H-pyrido[4,3-b]indole], the inhibition at 1 µM [1] was 97%, the inhibition at 1 µM [2] was 97% and the inhibition at 1 µM [3] was 101%. The inhibition at 1 µM [4] was 98%, the inhibition at 1 µM [5] was 94% and the inhibition at 1 µM [6, 7] was 40%. The inhibition at 1 µM (histamine receptor H1) was 58%.
Work on `C/C(=C\n1c2c(c3cc(Cl)ccc31)CN(C)CC2)c1cc(F)c(F)cc1Cl` [Compound 241, (E)-8-chloro-5-(2-(2-chloro-4,5-difluorophenyl)prop-1-enyl)-2-methyl-2,3,4,5-tetrahydro-1H-pyrido[4,3-b]indole] yielded an inhibition at 1 µM [1] of 98%, an inhibition at 1 µM [2] of 101% and an inhibition at 1 µM [3] of 93%. It also gave an inhibition at 1 µM [4] of 100%, an inhibition at 1 µM [5] of 96% and an inhibition at 1 µM [6, 7] of 47%. The inhibition at 1 µM (histamine receptor H1) was 89%.
`C/C(=C/n1c2c(c3cc(Cl)ccc31)CN(C)CC2)c1cc(F)c(F)cc1Cl` [Compound 240, (Z)-8-chloro-5-(2-(2-chloro-4,5-difluorophenyl)prop-1-enyl)-2-methyl-2,3,4,5-tetrahydro-1H-pyrido[4,3-b]indole] was tested, and the inhibition at 1 µM [1] was 99%, the inhibition at 1 µM [2] was 104% and the inhibition at 1 µM [3] was 99%. The inhibition at 1 µM [4] was 99%, the inhibition at 1 µM [5] was 99% and the inhibition at 1 µM [6, 7] was 34%. The inhibition at 1 µM (histamine receptor H1) was 95%.
In the case of `C/C(=C\n1c2c(c3cc(Cl)ccc31)CN(C)CC2)c1cccc(F)c1` [Compound 234, (E)-8-chloro-5-(2-(3-fluorophenyl)prop-1-enyl)-2-methyl-2,3,4,5-tetrahydro-1H-pyrido[4,3-b]indole], the inhibition at 1 µM [1] was 94%, the inhibition at 1 µM [2] was 101% and the inhibition at 1 µM [3] was 100%. The inhibition at 1 µM [4] was 102%, the inhibition at 1 µM [5] was 99% and the inhibition at 1 µM [6, 7] was 73%. The inhibition at 1 µM (histamine receptor H1) was 69%.
`Cc1ccc(C#Cn2c3c(c4cc(Cl)ccc42)CN(C)CC3)cn1` [Compound No. 484, 8-chloro-2-methyl-5-((6-methylpyridin-3-yl)ethynyl)-2,3,4,5-tetrahydro-1H-pyrido[4,3-b]indole] showed an inhibition at 1 µM [1] of 77%, an inhibition at 1 µM [2] of 34% and an inhibition at 1 µM [3] of 98%. The inhibition at 1 µM [4] was 95%, the inhibition at 1 µM [5] was 83% and the inhibition at 1 µM [6, 8] was -4%. The inhibition at 1 µM (histamine receptor H1) was 6%.
Work on `C/C(=C\n1c2c(c3cc(Cl)ccc31)CN(C)CC2)c1cccnc1` [Compound 86, (E)-8-chloro-2,3,4,5-tetrahydro-2-methyl-5-(2-(pyridin-3-yl)prop-1-enyl)-1H-pyrido[4,3-b]indole] yielded an inhibition at 1 µM [1] of 54%, an inhibition at 1 µM [2] of 77% and an inhibition at 1 µM [3] of 95%. For the same compound, the inhibition at 1 µM [4] was 94%, the inhibition at 1 µM [5] was 93% and the inhibition at 1 µM [6, 7] was 40%. It also gave an inhibition at 1 µM (histamine receptor H1) of 72%.
Work on `Cc1ccc2c(c1)c1c(n2CC(C)(O)c2ccc(O)cc2)CCN(C)C1` (stereo not drawn) [Compound 187, 4-(1-(2,8-dimethyl-3,4-dihydro-1H-pyrido[4,3-b]indol-5(2H)-yl)-2-hydroxypropan-2-yl)phenol] yielded an inhibition at 1 µM [1] of 57%, an inhibition at 1 µM [2] of 98% and an inhibition at 1 µM [3] of 102%. The inhibition at 1 µM [4] was 99%, the inhibition at 1 µM [5] was 94% and the inhibition at 1 µM [6, 7] was 35%. For the same compound, the inhibition at 1 µM (histamine receptor H1) was 36%.
In the case of `C=C(Cn1c2c(c3cccc(Cl)c31)CN(C)CC2)c1ccc(F)cc1` [Compound No. 354, 6-chloro-5-(2-(4-fluorophenyl)allyl)-2-methyl-2,3,4,5-tetrahydro-1H-pyrido[4,3-b]indole], the inhibition at 1 µM [1] was 97%, the inhibition at 1 µM [2] was 103% and the inhibition at 1 µM [3] was 100%. For the same compound, the inhibition at 1 µM [4] was 101%, the inhibition at 1 µM [5] was 75% and the inhibition at 1 µM [6, 8] was 98%. For the same compound, the inhibition at 1 µM (histamine receptor H1) was 86%.
`C/C(=C\n1c2c(c3ccc(C(F)(F)F)cc31)CN(C)CC2)c1ccc(F)cc1` [Compound 229, (E)-5-(2-(4-fluorophenyl)prop-1-enyl)-2-methyl-7-(trifluoromethyl)-2,3,4,5-tetrahydro-1H-pyrido[4,3-b]indole] was tested, and the inhibition at 1 µM [1] was 96%, the inhibition at 1 µM [2] was 107% and the inhibition at 1 µM [3] was 100%. For the same compound, the inhibition at 1 µM [4] was 100%, the inhibition at 1 µM [5] was 89% and the inhibition at 1 µM [6, 7] was 100%. It also gave an inhibition at 1 µM (histamine receptor H1) of 54%.
`C/C(=C\n1c2c(c3cc(C)ccc31)CN(C)CC2)c1cc(Cl)cc(Cl)c1` [Compound 218, (E)-5-(2-(3,5-dichlorophenyl)prop-1-enyl)-2,8-dimethyl-2,3,4,5-tetrahydro-1H-pyrido[4,3-b]indole] was tested, and the inhibition at 1 µM [1] was 98%, the inhibition at 0.1 µM ([2]; compound at 0.1 μM) was 85% and the inhibition at 1 µM [2] was 99%. The inhibition at 0.1 µM ([3]; read-out: Inhibition of ligand binding, Serotonin 5-HT2A (percent inhibition of specific binding), compound at 0.1 μM) was 94%, the inhibition at 1 µM [3] was 99% and the inhibition at 0.1 µM ([4]; compound at 0.1 μM) was 92%. For the same compound, the inhibition at 1 µM [4] was 96%, the inhibition at 1 µM [5] was 93% and the “Inhibition of ligand binding, Dopamine D2L” value ([6]; percent inhibition of specific binding, 1 µM) was 43%. For the same compound, the inhibition at 1 µM [6, 7] was 40% and the “Histamine Binding (1 μM) H1, percent inhibition of specific binding” value (histamine receptor H1; 1 μM) was 78% and 79%.
In the case of `CN1CCc2c(c3ccccc3n2CC(C)(O)c2ccncc2)C1` (stereo not drawn) [Compound 186, 1-(2-methyl-3,4-dihydro-1H-pyrido[4,3-b]indol-5(2H)-yl)-2-(pyridin-4-yl)propan-2-ol], the inhibition at 1 µM [1] was 22%, the inhibition at 1 µM [2] was 12% and the inhibition at 1 µM [3] was 74%. For the same compound, the inhibition at 1 µM [4] was 72%, the inhibition at 1 µM [5] was 37% and the inhibition at 1 µM [6, 7] was 3%. For the same compound, the inhibition at 1 µM (histamine receptor H1) was 1%.
`COc1ccc(/C(C)=C/n2c3c(c4cc(C)ccc42)CN(C)CC3)cc1` [Compound 236, (E)-5-(2-(4-methoxyphenyl)prop-1-enyl)-2,8-dimethyl-2,3,4,5-tetrahydro-1H-pyrido[4,3-b]indole] gave an inhibition at 1 µM [1] of 99%, an inhibition at 1 µM [2] of 98% and an inhibition at 1 µM [3] of 99%. The inhibition at 1 µM [4] was 102%, the inhibition at 1 µM [5] was 93% and the inhibition at 1 µM [6, 7] was 76%. For the same compound, the inhibition at 1 µM (histamine receptor H1) was 20%.
`C/C(=C\n1c2c(c3cc(Cl)ccc31)CN(C)CC2)c1ccccc1Cl` [Compound 238, (E)-8-chloro-5-(2-(2-chlorophenyl)prop-1-enyl)-2-methyl-2,3,4,5-tetrahydro-1H-pyrido[4,3-b]indole] showed an inhibition at 1 µM [1] of 93%, an inhibition at 1 µM [2] of 99% and an inhibition at 1 µM [3] of 101%. The inhibition at 1 µM [4] was 99%, the inhibition at 1 µM [5] was 98% and the inhibition at 1 µM [6, 7] was 81%. For the same compound, the inhibition at 1 µM (histamine receptor H1) was 58%.
`C/C(=C\n1c2c(c3cc(C)ccc31)CN(C)CC2)c1cccc(F)c1` [Compound 226, (E)-5-(2-(3-fluorophenyl)prop-1-enyl)-2,8-dimethyl-2,3,4,5-tetrahydro-1H-pyrido[4,3-b]indole] gave an inhibition at 1 µM [1] of 100%, an inhibition at 1 µM [2] of 101% and an inhibition at 1 µM [3] of 98%. For the same compound, the inhibition at 1 µM [4] was 100%, the inhibition at 1 µM [5] was 100% and the inhibition at 1 µM [6, 7] was 46%. It also gave an inhibition at 1 µM (histamine receptor H1) of 71%.

— patent US8906925B2, “Pyrido[4,3-B]indoles containing rigid moieties” (Medivation Technologies, Inc., priority 2008, dated 2014)
